From US11566022B2, “3-(5-methoxy-1-oxoisoindolin-2-yl)piperidine-2,6-dione derivatives and uses thereof” (NOVARTIS AG, priority 2019, dated 2023)
Like-named read-outs stand apart in the source and are kept apart here.

Molecular target: HiBit-WIZ fusion protein (Homo sapiens, UniProt O95785+Q96SW2)
Experiment: Quantification of WIZ protein levels in HiBit tag fusion protein assay (WIZ HiBit assay in 293T cells)
Assay type: cell-based
Set-up: Dmax: dose or concentration left out as unconfirmed
Conditions: for Dmax / remaining activity at up to 25 µM / remaining activity: HEK-293T; for remaining activity at up to 25 µM: read-out: WIZ Amax; for DC50: WIZ HiBit assay in 293T cells, 10-point, 5-fold dose response, highest concentration 25 μM, about 18 hours, read-out: WIZ AC50; for remaining activity: read-out: WIZ Amax, DMSO-normalized, curve-fitted percentage of WIZ-HiBit remaining at 25 uM
[1] = 100 minus Amax, 293T cells, read-out: % degradation of WIZ (100-Amax)
[2] = DMSO-normalized, curve-fitted percentage of WIZ-HiBit remaining at 25 uM, 293T cells
[3] = read-out: % degradation of WIZ (100-Amax), 100 minus Amax, 293T cells

Chain of HiBit-WIZ fusion protein (O95785 whole entry, the tested form may be a part): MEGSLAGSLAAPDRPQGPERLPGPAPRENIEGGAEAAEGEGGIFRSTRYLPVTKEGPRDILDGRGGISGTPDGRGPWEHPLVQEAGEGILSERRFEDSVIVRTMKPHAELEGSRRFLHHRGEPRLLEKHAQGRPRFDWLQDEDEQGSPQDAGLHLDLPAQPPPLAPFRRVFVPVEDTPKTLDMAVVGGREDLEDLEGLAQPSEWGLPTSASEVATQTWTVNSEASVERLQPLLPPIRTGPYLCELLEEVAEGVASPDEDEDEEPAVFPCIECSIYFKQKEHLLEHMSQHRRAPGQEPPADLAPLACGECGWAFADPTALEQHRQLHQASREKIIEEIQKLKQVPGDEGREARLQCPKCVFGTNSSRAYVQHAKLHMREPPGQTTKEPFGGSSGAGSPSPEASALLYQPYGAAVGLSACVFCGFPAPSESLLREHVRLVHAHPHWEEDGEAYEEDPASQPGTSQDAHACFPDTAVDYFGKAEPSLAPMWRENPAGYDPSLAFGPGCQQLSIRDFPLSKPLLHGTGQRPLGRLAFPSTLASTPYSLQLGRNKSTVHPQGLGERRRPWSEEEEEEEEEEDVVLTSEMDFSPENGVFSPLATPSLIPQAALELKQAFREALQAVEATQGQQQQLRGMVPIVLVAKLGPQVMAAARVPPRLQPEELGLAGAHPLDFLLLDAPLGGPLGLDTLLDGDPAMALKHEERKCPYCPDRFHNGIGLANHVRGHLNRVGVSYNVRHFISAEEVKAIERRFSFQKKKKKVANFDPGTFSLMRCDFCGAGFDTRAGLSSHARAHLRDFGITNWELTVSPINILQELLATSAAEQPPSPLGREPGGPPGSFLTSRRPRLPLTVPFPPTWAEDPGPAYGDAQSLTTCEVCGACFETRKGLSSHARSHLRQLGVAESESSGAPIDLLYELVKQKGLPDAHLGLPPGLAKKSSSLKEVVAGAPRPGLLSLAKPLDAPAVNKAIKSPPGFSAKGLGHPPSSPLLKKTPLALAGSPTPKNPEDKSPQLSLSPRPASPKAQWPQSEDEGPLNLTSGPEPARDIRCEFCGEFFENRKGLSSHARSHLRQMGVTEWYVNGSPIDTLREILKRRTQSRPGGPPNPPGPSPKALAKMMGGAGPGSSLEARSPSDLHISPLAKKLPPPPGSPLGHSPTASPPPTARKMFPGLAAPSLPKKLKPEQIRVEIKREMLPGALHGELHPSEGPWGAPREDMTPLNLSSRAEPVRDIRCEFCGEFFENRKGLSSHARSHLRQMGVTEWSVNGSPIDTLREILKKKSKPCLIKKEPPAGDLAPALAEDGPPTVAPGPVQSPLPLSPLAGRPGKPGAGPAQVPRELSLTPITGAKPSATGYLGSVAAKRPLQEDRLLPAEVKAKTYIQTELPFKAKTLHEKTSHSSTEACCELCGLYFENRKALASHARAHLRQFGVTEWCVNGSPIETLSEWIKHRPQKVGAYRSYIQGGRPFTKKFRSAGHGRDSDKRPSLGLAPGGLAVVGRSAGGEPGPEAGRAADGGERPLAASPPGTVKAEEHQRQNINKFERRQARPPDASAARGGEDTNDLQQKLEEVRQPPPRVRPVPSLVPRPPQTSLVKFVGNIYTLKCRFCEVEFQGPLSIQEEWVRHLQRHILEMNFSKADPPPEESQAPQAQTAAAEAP
Chain of HiBit-WIZ fusion protein (Q96SW2 whole entry, the tested form may be a part): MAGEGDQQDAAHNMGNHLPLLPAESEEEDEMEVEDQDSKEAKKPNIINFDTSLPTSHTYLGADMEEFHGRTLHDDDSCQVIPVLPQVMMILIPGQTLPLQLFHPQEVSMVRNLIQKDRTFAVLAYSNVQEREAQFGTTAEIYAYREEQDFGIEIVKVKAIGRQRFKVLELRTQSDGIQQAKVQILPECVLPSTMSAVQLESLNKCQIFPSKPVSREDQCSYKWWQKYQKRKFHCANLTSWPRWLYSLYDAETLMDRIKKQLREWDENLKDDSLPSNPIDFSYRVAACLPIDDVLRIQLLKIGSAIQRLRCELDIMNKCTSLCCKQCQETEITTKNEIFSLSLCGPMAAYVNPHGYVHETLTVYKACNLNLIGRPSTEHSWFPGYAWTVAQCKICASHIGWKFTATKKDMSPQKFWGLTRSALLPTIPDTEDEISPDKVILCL
Chain of HiBit-WIZ fusion protein (Q16531 whole entry partner, the tested form may be a part): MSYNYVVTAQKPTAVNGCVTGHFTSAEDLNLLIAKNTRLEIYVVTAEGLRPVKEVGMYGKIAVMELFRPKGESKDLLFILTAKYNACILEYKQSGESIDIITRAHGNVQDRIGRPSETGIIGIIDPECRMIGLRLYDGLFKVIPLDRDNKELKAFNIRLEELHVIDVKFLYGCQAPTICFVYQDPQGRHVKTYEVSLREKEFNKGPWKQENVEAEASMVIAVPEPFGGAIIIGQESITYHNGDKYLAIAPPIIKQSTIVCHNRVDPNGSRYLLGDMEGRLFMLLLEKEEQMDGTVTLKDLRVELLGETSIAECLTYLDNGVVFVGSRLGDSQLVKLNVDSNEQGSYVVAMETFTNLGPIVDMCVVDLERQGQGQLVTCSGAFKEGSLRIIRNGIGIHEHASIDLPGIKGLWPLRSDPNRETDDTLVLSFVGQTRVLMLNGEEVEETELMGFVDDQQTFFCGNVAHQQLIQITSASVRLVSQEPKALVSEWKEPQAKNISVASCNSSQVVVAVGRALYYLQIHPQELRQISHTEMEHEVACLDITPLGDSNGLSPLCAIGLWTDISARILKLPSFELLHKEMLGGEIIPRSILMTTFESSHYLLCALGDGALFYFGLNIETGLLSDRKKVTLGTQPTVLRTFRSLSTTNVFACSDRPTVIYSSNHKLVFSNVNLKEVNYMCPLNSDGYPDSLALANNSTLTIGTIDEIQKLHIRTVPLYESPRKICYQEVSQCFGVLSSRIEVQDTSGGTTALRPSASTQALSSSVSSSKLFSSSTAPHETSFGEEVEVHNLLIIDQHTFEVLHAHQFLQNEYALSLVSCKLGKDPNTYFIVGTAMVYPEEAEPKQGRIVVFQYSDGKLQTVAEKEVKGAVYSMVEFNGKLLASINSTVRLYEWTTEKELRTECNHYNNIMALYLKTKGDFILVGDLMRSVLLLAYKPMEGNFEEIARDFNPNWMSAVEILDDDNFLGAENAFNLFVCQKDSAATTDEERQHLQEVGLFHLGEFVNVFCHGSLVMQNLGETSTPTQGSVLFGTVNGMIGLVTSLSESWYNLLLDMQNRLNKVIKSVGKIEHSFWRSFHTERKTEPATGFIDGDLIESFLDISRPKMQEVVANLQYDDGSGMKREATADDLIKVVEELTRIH

Structure (SMILES)	Dmax [1] [%]	remaining activity at up to 25 µM [2] [%]	DC50 [nM]	% degradation of WIZ (100-Amax) (100 minus Amax, at 25 uM, 293T cells) [%]	WIZ Amax [2] [%]	Dmax [3] [%]	remaining activity (293T cells) [%]
Cn1nc(CN2CCCC[C@H]2COc2ccc3c(c2)CN(C2CCC(=O)NC2=O)C3=O)cc1-c1ccccc1 (some centres unmarked) [Compound I-50bc]	93.4	6.6	58				
CCC(Oc1ccc2c(c1)CN(C1CCC(=O)NC1=O)C2=O)[C@@H]1CCCN1 (single isomer, unassigned) [Compound I-45]			> 25000	21.3	78.7		
N#Cc1ccn2cc(CN3CCCC[C@@H]3COc3ccc4c(c3)CN(C3CCC(=O)NC3=O)C4=O)nc2c1 (some centres unmarked) [Compound I-50dt]	67	33	2740				
Cn1cncc1CN1CCCC[C@H]1COc1ccc2c(c1)CN(C1CCC(=O)NC1=O)C2=O (some centres unmarked) [Compound I-50ag]	62.8	37.2	15200				
Cc1nccn1-c1ccc(CN2CCCC[C@@H]2COc2ccc3c(c2)CN(C2CCC(=O)NC2=O)C3=O)cc1 (some centres unmarked) [Compound I-50ew]	99.3	0.7	26				
O=C1CCC(N2Cc3cc(OC[C@@H]4CCCCN4C(=O)Cc4cscn4)ccc3C2=O)C(=O)N1 (some centres unmarked) [Compound I-72m]	8.4	91.6	> 25000				
O=C1CCC(N2Cc3cc(OC[C@@H]4CCCCN4C(=O)CCN4CCOCC4)ccc3C2=O)C(=O)N1 (some centres unmarked) [Compound I-72ca]	10.2	89.8	> 25000				
N#CCCN1CCN(CC(=O)N2CCCC[C@H]2COc2ccc3c(c2)CN(C2CCC(=O)NC2=O)C3=O)CC1 (some centres unmarked) [Compound I-72x]	0	100	> 25000				
O=C1CCC(N2Cc3cc(OC[C@@H]4CCCCN4Cc4ccccc4Cn4cncn4)ccc3C2=O)C(=O)N1 (some centres unmarked) [Compound I-50q]	4.5	95.5	> 25000				
Cc1cc(CN2CCCC[C@@H]2COc2ccc3c(c2)CN(C2CCC(=O)NC2=O)C3=O)no1 (some centres unmarked) [Compound I-50eq]	88.4	11.6	272				
O=C1CCC(N2Cc3cc(OC[C@@H]4CC(F)(F)CN4)ccc3C2=O)C(=O)N1 (stereo partly drawn) [Compound I-84, 3-(5-(((S)-4,4-difluoropyrrolidin-2-yl)methoxy)-1-oxoisoindolin-2-yl)piperidine-2,6-dione]	21.2	78.8	> 25000				
COC12CC(CN3CCCC[C@@H]3COc3ccc4c(c3)CN(C3CCC(=O)NC3=O)C4=O)(C1)C2 (stereo partly drawn) [Compound I-163, 3-(5-(((R)-1-((3-methoxybicyclo[1.1.1]pentan-1-yl)methyl)piperidin-2-yl)methoxy)-1-oxoisoindolin-2-yl)piperidine-2,6-dione]	70.5	29.5	29				
O=C1CCC(N2Cc3cc(OC[C@@H]4CCCCN4C(=O)C4CCCOC4)ccc3C2=O)C(=O)N1 (some centres unmarked) [Compound I-72gj]	2.3	97.7	> 25000				
O=C1CCC(N2Cc3cc(OC[C@@H]4CCCCN4Cc4cocn4)ccc3C2=O)C(=O)N1 (some centres unmarked) [Compound I-50e]	41.1	58.9	> 25000				
CN1CCOc2cc(C(=O)N3CCCC[C@H]3COc3ccc4c(c3)CN(C3CCC(=O)NC3=O)C4=O)cnc21 (some centres unmarked) [Compound I-72ij]	68.7	31.3	2760				
O=C1CCC(N2Cc3cc(OC[C@@H]4CCCCN4C(=O)c4csc(-c5ccccc5)n4)ccc3C2=O)C(=O)N1 (some centres unmarked) [Compound I-72du]	23.6	76.4	> 25000				
COc1ccc(-c2cc(C(=O)N3CCCC[C@H]3COc3ccc4c(c3)CN(C3CCC(=O)NC3=O)C4=O)[nH]n2)cc1 (some centres unmarked) [Compound I-72ai]	41.6	58.4	> 25000				
N#Cc1cc(CN2CCCC[C@@H]2COc2ccc3c(c2)CN(C2CCC(=O)NC2=O)C3=O)ccn1 (some centres unmarked) [Compound I-50dn]	21.2	78.8	> 25000				
O=C1CCC(N2Cc3cc(OC[C@@H]4CCCCN4C(=O)c4ccccc4Cn4cncn4)ccc3C2=O)C(=O)N1 (some centres unmarked) [Compound I-72jx]	6.1	93.9	> 25000				
COC(=O)[C@@H]1CC[C@H](CN2CCCC[C@H]2COc2ccc3c(c2)CN(C2CCC(=O)NC2=O)C3=O)C1 (some centres unmarked) [Compound I-50cz]	49.8	50.2	> 25000				
Cc1nc(C(F)(F)F)ccc1C(=O)N1CCCC[C@H]1COc1ccc2c(c1)CN(C1CCC(=O)NC1=O)C2=O (some centres unmarked) [Compound I-72n]	23.4	76.6	> 25000				
O=C1CCC(N2Cc3cc(OC[C@H]4CCCCN4Cc4ccc(F)cn4)ccc3C2=O)C(=O)N1 (some centres unmarked) [Compound I-115]	89.5	10.5	170				
COc1ccccc1CN1CCCC[C@@H]1COc1ccc2c(c1)CN(C1CCC(=O)NC1=O)C2=O (stereo partly drawn) [Compound I-133, 3-(5-(((R)-1-(2-methoxybenzyl)piperidin-2-yl)methoxy)-1-oxoisoindolin-2-yl)piperidine-2,6-dione]			8.8			83.3	16.7
CCN1CCOc2cccc(CN3CCCC[C@@H]3COc3ccc4c(c3)CN(C3CCC(=O)NC3=O)C4=O)c21 (stereo partly drawn) [Compound I-179, 3-(5-(((R)-1-((4-ethyl-3,4-dihydro-2H-benzo[b][1,4]oxazin-5-yl)methyl)piperidin-2-yl)methoxy)-1-oxoisoindolin-2-yl)piperidine-2,6-dione]			5.7			73.9	26.1
COc1ccc(C(=O)N2CCCC[C@H]2COc2ccc3c(c2)CN(C2CCC(=O)NC2=O)C3=O)nn1 (some centres unmarked) [Compound I-72gm]	6.8	93.2	> 25000				
Cc1nnsc1CN1CCCC[C@H]1COc1ccc2c(c1)CN(C1CCC(=O)NC1=O)C2=O (some centres unmarked) [Compound I-50at]	9.8	90.2	> 25000				
O=C1CCC(N2Cc3cc(OC[C@H]4CCCCN4Cc4ccc(N5CCN(C6CCOCC6)CC5)cc4)ccc3C2=O)C(=O)N1 (stereo partly drawn) [Compound I-109, 3-(1-oxo-5-(((R)-1-(4-(4-(tetrahydro-2H-pyran-4-yl)piperazin-1-yl)benzyl)piperidin-2-yl)methoxy)isoindolin-2-yl)piperidine-2,6-dione]	70.1	29.9	1500				
O=C1CCC(N2Cc3cc(OC[C@@H]4CCCCN4C(=O)c4cccc(N5CCCC5=O)c4)ccc3C2=O)C(=O)N1 (some centres unmarked) [Compound I-72hf]	6.8	93.2	> 25000				
Cc1nc(C)c(CN2CCCC[C@@H]2COc2ccc3c(c2)CN(C2CCC(=O)NC2=O)C3=O)s1 (some centres unmarked) [Compound I-145]	97.3	2.68	19				
COC1CCC(CN2CCCCC2C(C)Oc2ccc3c(c2)CN(C2CCC(=O)NC2=O)C3=O)CC1 (centres unmarked) [Compound I-217, 3-(5-(1-(1-((4-methoxycyclohexyl)methyl)piperidin-2-yl)ethoxy)-1-oxoisoindolin-2-yl)piperidine-2,6-dione]	0.4	99.6					
